Assay results as given in ChEMBL document CHEMBL1914283, “Synthesis and evaluation of pyridazinone-phenethylamine derivatives as selective and orally bioavailable histamine H3 receptor antagonists with robust wake-promoting activity” (Bioorg Med Chem Lett, 2011).
Calls of active or inactive are those of the source. No cut-off for these calls is given here.

Key:
[1] = molecular target: Histamine H3 receptor (Rattus norvegicus, UniProt Q9QYN8); test: Displacement of [3H]NAMH from rat H3R expressed in CHO cells; format: cell-based
[2] = molecular target: T1, Histamine H3 receptor (Homo sapiens, UniProt Q9Y5N1); test: Displacement of [3H]NAMH from human H3R expressed in CHO cells; format: cell-based
Target sequence in this assay (Q9Y5N1 whole entry): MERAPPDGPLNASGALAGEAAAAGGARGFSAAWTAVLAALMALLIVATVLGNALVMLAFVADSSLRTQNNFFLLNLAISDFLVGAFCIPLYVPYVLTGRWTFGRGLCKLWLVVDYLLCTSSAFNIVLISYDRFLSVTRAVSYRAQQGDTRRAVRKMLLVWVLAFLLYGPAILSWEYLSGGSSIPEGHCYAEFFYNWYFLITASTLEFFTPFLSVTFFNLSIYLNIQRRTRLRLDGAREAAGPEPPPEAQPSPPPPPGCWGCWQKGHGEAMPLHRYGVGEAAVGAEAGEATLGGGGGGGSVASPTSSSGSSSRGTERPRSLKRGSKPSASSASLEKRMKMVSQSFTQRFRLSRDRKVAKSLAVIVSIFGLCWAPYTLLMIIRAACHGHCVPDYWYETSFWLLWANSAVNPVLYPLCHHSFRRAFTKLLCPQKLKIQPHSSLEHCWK

[3] = Volume of distribution in rat at 1 mg/kg, iv; format: ADME, organism-based; set-up: dose 1 mg/kg, route intravenous; settings: in vivo
[4] = Aqueous solubility of the compound at pH 2; format: physicochemical; settings: buffer
[5] = Metabolic stability in mouse liver microsomes assessed as half life; format: ADME, Microsome
[6] = Ratio of drug level from brain to plasma of rat at 10 mg/kg, ip after 1 hr; format: ADME, organism-based; set-up: dose 10 mg/kg, route intraperitoneal; settings: read-out: BPR
[7] = Metabolic stability in human liver microsomes assessed as half life; format: ADME, Microsome
[8] = AUC (0 to infinity) in rat at 1 mg/kg, iv; format: ADME, organism-based; set-up: time infinity, dose 1 mg/kg, route intravenous; settings: plasma
[9] = molecular target: Cytochrome P450 3A4 (Homo sapiens, UniProt P08684); test: Inhibition of CYP3A4; format: ADME
[10] = molecular target: T2, Cytochrome P450 1A2 (Homo sapiens, UniProt P05177); test: Inhibition of CYP1A2; format: ADME
T2 sequence (P05177 whole entry): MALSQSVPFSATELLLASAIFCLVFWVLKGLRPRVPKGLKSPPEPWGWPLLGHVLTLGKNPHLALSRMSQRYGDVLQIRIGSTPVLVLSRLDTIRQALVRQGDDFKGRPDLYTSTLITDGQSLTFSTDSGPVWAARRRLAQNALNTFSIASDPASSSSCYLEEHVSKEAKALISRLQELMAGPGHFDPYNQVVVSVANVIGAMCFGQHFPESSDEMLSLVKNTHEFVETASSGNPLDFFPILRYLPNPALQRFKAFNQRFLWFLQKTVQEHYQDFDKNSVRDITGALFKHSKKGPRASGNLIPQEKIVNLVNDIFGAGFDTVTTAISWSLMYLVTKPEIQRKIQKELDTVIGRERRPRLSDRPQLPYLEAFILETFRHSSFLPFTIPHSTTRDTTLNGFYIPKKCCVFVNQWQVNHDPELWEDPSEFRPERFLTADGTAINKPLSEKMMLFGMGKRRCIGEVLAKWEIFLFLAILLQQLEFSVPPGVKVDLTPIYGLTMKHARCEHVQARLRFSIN

[11] = molecular target: T1, Histamine H3 receptor; test: Antagonist activity at human H3R expressed in CHO cells assessed as inhibition of R-alpha-methylhistamine-induced [35S]GTPgammaS binding; format: functional, cell-based
Target sequence in this assay (Q9Y5N1 whole entry): as the sequence (Q9Y5N1 whole entry) above

[12] = system: Rattus norvegicus; test: Wake promoting activity in Sprague-Dawley rat EEG/EMG model assessed as sleep rebound at 3 to 30 mg/kg, ip up to 22 hrs; format: functional, organism-based
[13] = Clearance in rat at 1 mg/kg, iv; format: ADME, organism-based; set-up: dose 1 mg/kg, route intravenous; settings: in vivo
[14] = Metabolic stability in dog liver microsomes assessed as half life; format: ADME, Canis lupus familiaris, Microsome
[15] = AUC (0 to infinity) in rat at 5 mg/kg, po; format: ADME, organism-based; set-up: time infinity, dose 5 mg/kg, route oral; settings: plasma
[16] = Half life in rat at 1 mg/kg, iv; format: ADME, organism-based; set-up: dose 1 mg/kg, route intravenous; settings: in vivo
[17] = Oral bioavailability in rat at 5 mg/kg; format: ADME, organism-based; settings: in vivo
[18] = molecular target: T1, Histamine H3 receptor; test: Antagonist activity at human H3R expressed in CHO cells assessed as inhibition of R-alpha-methylhistamine-induced [35S]GTPgammaS binding
Target sequence in this assay (Q9Y5N1 whole entry, looked up): as the sequence (Q9Y5N1 whole entry) above

[19] = molecular target: T1, Histamine H3 receptor; test: Inverse agonist activity at human H3R expressed in CHO cells assessed as inhibition of R-alpha-methylhistamine-induced [35S]GTPgammaS binding; format: functional, cell-based
Target sequence in this assay (Q9Y5N1 whole entry): as the sequence (Q9Y5N1 whole entry) above

[20] = system: Rattus norvegicus; test: Wake promoting activity in Sprague-Dawley rat EEG/EMG model assessed as cumulative wake time at 10 mg/kg, ip; format: functional; settings: route intraperitoneal
[21] = molecular target: Histamine H4 receptor (Homo sapiens) (UniProt Q9H3N8); test: Inhibition of human H4R at 10 uM
[22] = molecular target: Histamine H1 receptor (Homo sapiens) (UniProt P35367); test: Inhibition of human H1R at 10 uM
[23] = system: Rattus norvegicus; test: Wake promoting activity in Sprague-Dawley rat EEG/EMG model assessed as increase in cumulative wake time at 30 mg/kg, ip up to 7.5 hrs; format: functional, organism-based; set-up: dose 30 mg/kg
[24] = molecular target: Histamine H2 receptor (Homo sapiens) (UniProt P25021); test: Inhibition of human H2R at 10 uM
[25] = Aqueous solubility of the compound at pH 7.4; format: physicochemical; settings: buffer
[26] = Cmax in rat at 5 mg/kg, po; format: ADME, organism-based; set-up: dose 5 mg/kg, route oral; settings: in vivo
[27] = Metabolic stability in rat liver microsomes assessed as half life; format: ADME, Microsome
[28] = system: Rattus norvegicus; test: Wake promoting activity in Sprague-Dawley rat EEG/EMG model assessed as increase in cumulative wake time at 30 mg/kg, ip up to 4 hrs; format: functional; settings: route intraperitoneal
[29] = system: Rattus norvegicus; test: Toxicity in Sprague-Dawley rat EEG/EMG model assessed as EEG abnormality at 3 to 30 mg/kg, ip; format: organism-based; set-up: dose 3-30 mg/kg, route intraperitoneal; settings: in vivo
[30] = molecular target: Cytochrome P450 2C9 (Homo sapiens, UniProt P11712); test: Inhibition of CYP2C9; format: ADME
[31] = system: Rattus norvegicus; test: Inhibition of R-alpha-methylhistamine-induced water intake in ip dosed rat dipsogenia model; format: functional
[32] = molecular target: Cytochrome P450 2C19 (Homo sapiens, UniProt P33261); test: Inhibition of CYP2C19; format: ADME
[33] = molecular target: Cytochrome P450 2D6 (Homo sapiens, UniProt P10635); test: Inhibition of CYP2D6; format: ADME
[34] = system: Rattus norvegicus; test: Wake promoting activity in Sprague-Dawley rat EEG/EMG model assessed as increase in cumulative wake time at 30 mg/kg, ip up to 4.5 hrs; format: functional, organism-based; set-up: dose 30 mg/kg
[35] = system: Rattus norvegicus; test: Wake promoting activity in Sprague-Dawley rat EEG/EMG model assessed as sleep rebound at 3 to 30 mg/kg, ip; format: functional, organism-based
[36] = system: Rattus norvegicus; test: Wake promoting activity in Sprague-Dawley rat EEG/EMG model assessed as cumulative wake time at 30 mg/kg, ip after 7 hrs; format: functional; settings: route intraperitoneal
[37] = system: Rattus norvegicus; test: Wake promoting activity in Sprague-Dawley rat EEG/EMG model assessed as cumulative wake time at 30 mg/kg, ip; format: functional; settings: route intraperitoneal
[38] = system: Rattus norvegicus; test: Wake promoting activity in ip dosed Sprague-Dawley rat EEG/EMG model assessed as cumulative wake time; format: functional, organism-based
[39] = system: Rattus norvegicus; test: Wake promoting activity in Sprague-Dawley rat EEG/EMG model assessed as increase in cumulative wake time at 30 mg/kg, ip relative to vehicle treated animals; format: functional; settings: route intraperitoneal

Chain of Histamine H3 receptor (Rattus norvegicus, UniProt Q9QYN8) (Q9QYN8 whole entry): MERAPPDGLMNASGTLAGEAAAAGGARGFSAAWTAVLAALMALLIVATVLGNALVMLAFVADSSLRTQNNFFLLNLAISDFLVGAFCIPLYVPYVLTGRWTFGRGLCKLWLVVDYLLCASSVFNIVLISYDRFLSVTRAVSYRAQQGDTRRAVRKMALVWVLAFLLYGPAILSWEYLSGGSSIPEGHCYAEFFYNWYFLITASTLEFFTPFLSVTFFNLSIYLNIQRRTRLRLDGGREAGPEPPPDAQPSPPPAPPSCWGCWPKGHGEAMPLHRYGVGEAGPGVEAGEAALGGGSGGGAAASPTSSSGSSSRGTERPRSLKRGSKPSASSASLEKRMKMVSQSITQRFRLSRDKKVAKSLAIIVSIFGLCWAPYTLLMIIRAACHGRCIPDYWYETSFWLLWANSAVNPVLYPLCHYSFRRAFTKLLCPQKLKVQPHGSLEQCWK
Chain of Histamine H4 receptor (Homo sapiens) (Q9H3N8 whole entry): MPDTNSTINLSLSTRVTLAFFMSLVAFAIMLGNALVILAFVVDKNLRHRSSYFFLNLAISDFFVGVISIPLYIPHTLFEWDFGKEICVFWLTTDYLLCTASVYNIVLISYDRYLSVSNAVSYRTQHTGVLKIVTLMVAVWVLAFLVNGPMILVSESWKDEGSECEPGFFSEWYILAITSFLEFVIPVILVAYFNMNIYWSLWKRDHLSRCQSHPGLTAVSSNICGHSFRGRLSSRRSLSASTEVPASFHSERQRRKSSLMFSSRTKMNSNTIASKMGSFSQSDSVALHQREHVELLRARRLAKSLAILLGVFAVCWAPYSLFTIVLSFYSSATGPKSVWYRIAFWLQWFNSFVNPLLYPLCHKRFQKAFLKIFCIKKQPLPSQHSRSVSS
Chain of Histamine H1 receptor (Homo sapiens) (P35367 whole entry): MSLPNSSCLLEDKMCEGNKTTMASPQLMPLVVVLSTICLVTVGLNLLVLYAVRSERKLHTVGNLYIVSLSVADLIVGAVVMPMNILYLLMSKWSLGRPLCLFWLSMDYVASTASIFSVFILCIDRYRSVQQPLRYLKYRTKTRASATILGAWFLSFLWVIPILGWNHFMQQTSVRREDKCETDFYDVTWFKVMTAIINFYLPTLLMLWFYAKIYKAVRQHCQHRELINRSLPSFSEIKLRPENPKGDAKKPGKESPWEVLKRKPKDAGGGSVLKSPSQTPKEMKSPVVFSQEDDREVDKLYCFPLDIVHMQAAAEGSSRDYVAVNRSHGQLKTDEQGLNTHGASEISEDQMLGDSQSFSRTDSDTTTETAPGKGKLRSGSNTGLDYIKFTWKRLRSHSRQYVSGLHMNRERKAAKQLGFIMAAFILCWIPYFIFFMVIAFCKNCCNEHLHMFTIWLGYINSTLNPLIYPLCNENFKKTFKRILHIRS
Chain of Cytochrome P450 2C9 (P11712 whole entry): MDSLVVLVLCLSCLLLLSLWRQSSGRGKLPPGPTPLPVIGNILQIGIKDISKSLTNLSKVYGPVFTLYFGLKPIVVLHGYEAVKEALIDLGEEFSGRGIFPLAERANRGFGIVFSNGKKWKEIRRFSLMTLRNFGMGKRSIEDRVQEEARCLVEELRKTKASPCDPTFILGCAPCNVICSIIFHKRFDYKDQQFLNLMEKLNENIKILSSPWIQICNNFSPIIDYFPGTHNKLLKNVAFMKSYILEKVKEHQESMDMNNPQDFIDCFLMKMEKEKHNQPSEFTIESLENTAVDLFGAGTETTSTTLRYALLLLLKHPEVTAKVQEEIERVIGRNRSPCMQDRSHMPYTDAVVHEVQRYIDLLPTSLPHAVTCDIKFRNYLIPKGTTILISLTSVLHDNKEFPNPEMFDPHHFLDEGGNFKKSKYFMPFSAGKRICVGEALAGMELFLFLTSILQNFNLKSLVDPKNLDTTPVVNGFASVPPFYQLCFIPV
Chain of Histamine H2 receptor (Homo sapiens) (P25021 whole entry): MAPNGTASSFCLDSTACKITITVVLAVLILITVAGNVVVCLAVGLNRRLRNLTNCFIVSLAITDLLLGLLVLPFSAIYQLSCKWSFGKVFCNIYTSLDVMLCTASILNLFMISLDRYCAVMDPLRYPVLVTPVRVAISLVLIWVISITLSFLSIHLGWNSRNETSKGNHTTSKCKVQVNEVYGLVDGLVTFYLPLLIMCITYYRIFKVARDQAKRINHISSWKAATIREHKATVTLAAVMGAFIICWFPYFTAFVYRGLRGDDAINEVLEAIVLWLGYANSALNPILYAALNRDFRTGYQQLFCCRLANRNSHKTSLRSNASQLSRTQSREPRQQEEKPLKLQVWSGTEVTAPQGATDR
Chain of Cytochrome P450 3A4 (P08684 whole entry): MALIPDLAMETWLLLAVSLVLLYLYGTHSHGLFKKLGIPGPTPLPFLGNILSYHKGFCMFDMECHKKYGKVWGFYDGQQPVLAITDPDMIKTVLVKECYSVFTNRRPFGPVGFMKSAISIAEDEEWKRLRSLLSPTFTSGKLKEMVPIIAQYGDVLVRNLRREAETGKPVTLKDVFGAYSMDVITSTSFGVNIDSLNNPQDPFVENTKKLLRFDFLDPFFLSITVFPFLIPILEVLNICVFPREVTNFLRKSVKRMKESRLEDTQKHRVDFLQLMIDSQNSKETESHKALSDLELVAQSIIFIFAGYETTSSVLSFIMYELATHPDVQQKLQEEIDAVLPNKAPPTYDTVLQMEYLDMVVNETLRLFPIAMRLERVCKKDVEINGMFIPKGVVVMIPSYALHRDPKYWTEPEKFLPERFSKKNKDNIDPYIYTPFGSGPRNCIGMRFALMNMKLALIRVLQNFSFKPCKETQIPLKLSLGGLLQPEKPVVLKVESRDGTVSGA
Chain of Cytochrome P450 2D6 (P10635 whole entry): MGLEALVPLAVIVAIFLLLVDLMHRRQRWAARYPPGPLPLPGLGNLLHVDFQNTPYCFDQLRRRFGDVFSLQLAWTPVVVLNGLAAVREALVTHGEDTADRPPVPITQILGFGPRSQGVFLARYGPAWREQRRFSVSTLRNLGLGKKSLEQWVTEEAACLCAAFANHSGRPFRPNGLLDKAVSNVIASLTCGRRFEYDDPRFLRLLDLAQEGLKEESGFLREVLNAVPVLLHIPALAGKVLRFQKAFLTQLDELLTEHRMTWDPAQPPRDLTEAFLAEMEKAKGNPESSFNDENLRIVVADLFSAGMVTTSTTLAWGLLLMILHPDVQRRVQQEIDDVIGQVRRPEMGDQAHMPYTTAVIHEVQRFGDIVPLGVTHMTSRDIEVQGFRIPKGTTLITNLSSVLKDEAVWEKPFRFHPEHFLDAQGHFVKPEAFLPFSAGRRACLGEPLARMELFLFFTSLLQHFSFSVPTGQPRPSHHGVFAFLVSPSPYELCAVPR
Chain of Cytochrome P450 2C19 (P33261 whole entry): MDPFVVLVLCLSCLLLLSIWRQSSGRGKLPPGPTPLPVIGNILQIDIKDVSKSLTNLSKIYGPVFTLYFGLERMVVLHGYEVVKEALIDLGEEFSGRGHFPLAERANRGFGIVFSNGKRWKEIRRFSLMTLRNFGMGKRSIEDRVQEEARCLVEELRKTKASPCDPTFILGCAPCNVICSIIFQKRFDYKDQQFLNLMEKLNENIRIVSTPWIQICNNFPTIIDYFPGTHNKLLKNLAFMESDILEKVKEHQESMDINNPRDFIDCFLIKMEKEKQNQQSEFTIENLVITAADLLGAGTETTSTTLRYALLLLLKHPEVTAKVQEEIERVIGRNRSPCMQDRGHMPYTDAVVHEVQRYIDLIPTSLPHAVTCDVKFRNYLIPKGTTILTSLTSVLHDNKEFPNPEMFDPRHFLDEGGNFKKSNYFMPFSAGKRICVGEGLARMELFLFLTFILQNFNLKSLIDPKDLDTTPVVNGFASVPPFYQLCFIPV

C[C@@H]1CCCN1CCc1ccc(-c2ccc(=O)n(-c3ccccc3)n2)cc1
Ki [1]: 42 nM | Ki [2]: 34 nM

Cn1nc(-c2ccc(CCN3CCCC3)cc2)ccc1=O
Ki [1]: 135 nM | Ki [2]: 83 nM

C[C@@H]1CCCN1CCCOc1ccc(-c2ccc(=O)[nH]n2)cc1 [IRDABISANT]
Ki [1]: 7 nM

C[C@@H]1CCCN1CCc1ccc(-c2ccc(=O)n(-c3ccc(F)cc3)n2)cc1
Vd [3]: 4.8 L/kg | solubility [4]: > 125 µg/mL | half-life [5]: > 40 min | Kp at 1 h [6]: 11 | half-life [7]: > 40 min | Ki [1]: 48 nM | AUC(0-inf) [8]: 1300 ng·h/mL | IC50 [9]: > 30000 nM | IC50 [10]: > 30000 nM | Activity [11]: Active | Activity [12]: inactive | clearance [13]: 21 mL/min/kg | half-life [14]: > 40 min | AUC(0-inf) [15]: 1730 ng·h/mL | half-life [16]: 138 min | bioavailability [17]: 27% | Activity [18]: Active | EC50 [19]: 2.1 nM | Time [20]: 207 min | inhibition [21]: < 30% | Ki [2]: 13 nM | inhibition [22]: < 30% | Activity [23]: Active | inhibition [24]: < 30% | solubility [25]: > 125 µg/mL | Cmax [26]: 255 ng/mL | half-life [27]: > 40 min | Activity [28]: 94% | Activity [29]: Non-toxic | IC50 [30]: > 30000 nM | ED50 [31]: 0.02 mg/kg | inhibition [31]: Dose-dependent effect | IC50 [32]: > 30000 nM | IC50 [33]: > 30000 nM

C[C@@H]1CCCN1CCc1ccc(-c2ccc(=O)n(C)n2)cc1
Vd [3]: 0.6 L/kg | Activity [34]: Active | half-life [5]: 25 min | Kp at 1 h [6]: 6 | half-life [7]: > 40 min | Ki [1]: 58 nM | Activity [35]: inactive | AUC(0-inf) [8]: 1650 ng·h/mL | IC50 [9]: > 30000 nM | IC50 [10]: > 30000 nM | Time [36]: 200 min | Activity [11]: Active | clearance [13]: 12 mL/min/kg | Time [37]: 235 min | half-life [14]: > 40 min | AUC(0-inf) [15]: 28 ng·h/mL | half-life [16]: 30 min | bioavailability [17]: < 1% | Activity [18]: Active | EC50 [19]: 2 nM | Time [20]: 161 min | inhibition [21]: < 30% | Ki [2]: 7 nM | Time [38]: Dose-dependent effect | inhibition [22]: < 30% | inhibition [24]: < 30% | Cmax [26]: 18 ng/mL | half-life [27]: 39 min | Activity [28]: 98% | Activity [29]: Non-toxic | Activity [39]: 68% | IC50 [30]: > 30000 nM | ED50 [31]: 0.07 mg/kg | inhibition [31]: Dose-dependent effect | IC50 [32]: > 30000 nM | IC50 [33]: > 30000 nM

C[C@@H]1CCCN1CCc1ccc(-c2ccc(=O)n(-c3ccc(Cl)cc3)n2)cc1
Ki [1]: 26 nM | Ki [2]: 8 nM

C[C@@H]1CCCN1CCc1ccc(-c2ccc(=O)n(Cc3ccccc3)n2)cc1
Ki [1]: 18 nM | Ki [2]: 5 nM

C[C@@H]1CCCN1CCc1ccc(-c2ccc(=O)[nH]n2)cc1
Ki [1]: 43 nM | Ki [2]: 31 nM

C[C@@H]1CCCN1CCc1ccc(-c2ccc(=O)n(-c3ccccn3)n2)cc1
Ki [1]: 242 nM | Ki [2]: 47 nM
